Our source for the EC50, IC50 and outcome values is PubChem BioAssay AID179 (DTP/NCI, 2004).

The term EC50 denotes the concentration giving half of the maximal effect. As usually defined, the IC50 is the concentration that gives 50% inhibition.

Values joined by “and” are separate entries in the source; they are usually repeats but may differ in a detail not shown here. Equal values may be shown once. Active and inactive are the calls of the source.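 How the source made its calls: active means compounds giving half or more protection of infected cells from virus-caused growth loss, again on retest; inactive means the rest.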

This test relates to CEM cells HIV-1 protection, formazan growth assay. The test can be described thus: NCI AIDS Antiviral Assay. To be noted: for IC50: measured here: growth of uninfected CEM cells. The gist of the method:
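CEM (human) cells, HIV-1 infected vs uninfected, 5-point dosing, formazan growth read-out. Retest threshold 50% protection.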

Take `CC(=O)OC1CC2C(C)(C)C(=O)C=C[C@]2(C)C2CCC3(C)C(=CCC3[C@H](CO)C[C@H](O)C(=O)C(C)(C)O)[C@]12C` (some centres not stated): the EC50 was greater than 47.9 µM and the IC50 amounted to 18.6 µM.

In the case of `COC(=O)C1(Cc2ccccc2)Cc2cc3c(cc2C1O)CCC3` (configuration not stated), the EC50 was greater than 200 µM and the half-maximal inhibitory concentration (IC50) stood at 24 µM.

In the case of `COC(=O)c1ccccc1NC(=NC1CCCCCC1)NS(=O)(=O)c1ccc(C)cc1`, the EC50 was greater than 200 µM and the IC50 was greater than 200 µM.

On to `COC1/C=C/OC2(C)Oc3c(C)c(O)c4c(O)c(c(/C=N/OCCN5CCCCC5)c(O)c4c3C2=O)NC(=O)C(C)=C/C=C/C(C)C(O)C(C)C(O)C(C)C(OC(C)=O)C1C` (configuration not stated), for which the EC50 was greater than 100 µM and the IC50 was found to be 28.2 µM.

For the molecule `CCN(CC)CCN1CC(=O)N2CCCCN2C(=O)C1`, the EC50 was greater than 200 µM and the concentration for half-maximal inhibition (IC50) is greater than 200 µM.

In the case of `COc1ccc(NC(=O)CC(=O)N2N=C(C)C(N=Nc3ccc(S(=O)(=O)c4ccc(N=NC5C(=O)N(C(=O)CC(=O)Nc6ccc(OC)cc6)N=C5C)cc4)cc3)C2=O)cc1` (configuration not stated), the EC50 is greater than 100 µM and the IC50 amounted to 95.5 µM.

With `Nc1ccn(CC2OCC(CO)O2)c(=O)n1` (configuration not stated), the EC50 is greater than 3470 µM; the IC50 is 2950 µM and 3020 µM.

As for `C=C1CC2C[C@H](OS(=O)(=O)c3ccc(C)cc3)C(C1)N2C` (some centres not stated), the EC50 is greater than 200 µM and the IC50 is greater than 200 µM.

In the case of `O=C(c1ccccc1)C1N=NN(Cc2ccccc2[N+](=O)[O-])C1C(=O)c1ccccc1` (configuration not stated), the EC50 was greater than 4.79 µM and the IC50 is greater than 4.79 µM.

With `O=C(c1ccccc1)c1nc2ccc(Cl)cc2cc1C(Br)Br`, the EC50 is greater than 3.31 µM and the half-maximal inhibitory concentration (IC50) was greater than 3.31 µM.

Turning to `COc1ccccc1NC(=O)O/N=C(/Cl)C(C)C`, the EC50 was greater than 200 µM and the half-inhibitory concentration (IC50) stood at 7.41 µM.

For `O=[N+]([O-])c1ccc(C2=Cc3ccc4ccccc4[n+]3NC2)cc1`, the EC50 was greater than 50.1 µM and the IC50 was greater than 50.1 µM.

In the case of `CC1CC(=O)Nc2ccccc2N1C(=O)CN1CCC(CCCCN(C)C)CC1` (configuration not stated), the EC50 is greater than 251 µM and the IC50 was greater than 251 µM.

As for `C=C1CC23CC4C5C6(C)CC(O)CC57C(C2C(O)C1C(O)C37)N4C6` (configuration not stated), the outcome was inactive.

On to `CCOP(=O)(O)CN1CCNCCN(CP(=O)(O)OCC)CCNCC1`, for which the EC50 was greater than 100 µM and the IC50 is greater than 100 µM.

Consider `Cc1ccccc1C1=C/C(=C(\SS/C(C(=O)c2ccc(OCC(=O)O)c(Cl)c2Cl)=C2\C=C(c3ccccc3C)SS2)C(=O)c2ccc(OCC(=O)O)c(Cl)c2Cl)SS1`, for which the EC50 was greater than 26.9 µM and the IC50 is greater than 26.9 µM.

`COc1ccc(C(F)(F)F)cc1NC(=O)O/N=C(/Cl)C(C)C`: the EC50 is greater than 20 µM and the 50% inhibitory concentration (IC50) amounted to 3.72 µM.

Turning to `Clc1ccc(-c2nnc(-c3nn(-c4ccccc4)c4nc5ccccc5nc34)o2)cc1`, the EC50 was greater than 1.29 µM and the IC50 is greater than 1.29 µM.

Take `O=C(O)c1ccc(CS(=O)c2ccccc2)c([N+](=O)[O-])c1` (configuration not stated): the result was inactive.

For `O=c1c2cc3c(cc2[nH]c2ncccc12)OCO3`, the EC50 was greater than 200 µM and the 50% inhibitory concentration (IC50) came to 145 µM.

As to `CC1S(=O)(=O)OCCOS1(=O)=O`, the EC50 was greater than 1150 µM and the IC50 was found to be 123 µM.

Consider `O=C1C/C(=C\O)C(=O)c2ccccc2N1`, for which the EC50 is 0.186 µM and the half-inhibitory concentration (IC50) was greater than 200 µM.

Turning to `CCOC(=O)/C(C#N)=C(O)/C(=C\c1ccc(Br)cc1)NC(=O)c1ccccc1`, the EC50 is greater than 562 µM and the IC50 is greater than 562 µM.

For `C[C@H]1C(=O)c2c(cc(O)c(C3OC(CO)C(O)C(O)C3O)c2O)OC1c1ccc(O)c(O)c1` (some centres not stated), the result was inactive.

Take `CCOC(=O)C(CC(CO)(C(C)=O)C(=O)OCC)C(C)=O` (configuration not stated): the EC50 is greater than 200 µM and the concentration for half-maximal inhibition (IC50) came to 22.4 µM.

Consider `CCN1C(=O)CCCCC(=O)Nc2ccccc2-c2ccccc21`, for which the result was inactive.

Take `Nc1nnnc2nc[nH]c12`: the EC50 is greater than 20 µM and the 50% inhibitory concentration (IC50) amounted to 0.537 µM.

As for `CC(C)C(OC(=O)c1cc(NC(=S)c2ccccc2)ccc1Cl)C(C)C`, the EC50 is 0.437 µM and the half-maximal inhibitory concentration (IC50) worked out at 11.7 µM.
